From patent US5288706A, “Medicament for prevention and remedy of diseases of the pancreas and others” (Mitsui Toatsu Chemicals, Incorporated, priority 1987, dated 1994) come the findings set out here.

Where two headings read alike, the source gives them in different places. Non-standard residues stand in square brackets, D forms with d. Residues, ends and D or L forms follow the SMILES beside them. pGlu = O=C1CC[C@@H](C(=O)O)N1

Data set [1] deals with ddy male mice. Conditions: mouse, in vivo, sc. As for the experimental part: (§1) Thus, the medicament of the present invention is a safe medicament of extremely low toxicity and can be administered for a long period of time.
No toxicity was observed when 50 mg/kg and 100 mg/kg of FTS as the effective ingredient were subcutaneously administered for consecutive 14 days to a group of five ddy male mice of 5 weeks old.

For data set [2], the system named is Wister rats. To be noted: rat, in vivo, sc, 30 mg/kg. As for the experimental part:
as §1
No toxicity was observed when 30 mg/kg of FTS as the effective ingredient wa subcutaneously administered for consecutive 21 days to a group of ten Wister rats of 5 weeks old.

Consider `C[C@H](NC(=O)[C@@H]1CCC(=O)N1)C(=O)N[C@@H](CCCCN)C(=O)N[C@@H](CO)C(=O)N[C@@H](CCC(N)=O)C(=O)NCC(=O)NCC(=O)N[C@@H](CO)C(=O)N[C@@H](CC(N)=O)C(=O)O` [FTS, pGlu-Ala-Lys-Ser-Gln-Gly-Gly-Ser-Asn] ([pGlu]AKSQGGSN-OH), for which the toxicity entry in data set [1] (50 mg/kg), in data set [1] (100 mg/kg) and in data set [2] was “No toxicity” each time. For the same compound, the “toxicity (external behavior observation, biochemical diagnosis of sera, pathological anatomy)” value in data set [2] is listed as “no abnormal symptom”.
